Source: PMC6321168, “Comparative Study on Excretive Characterization of Main Components in Herb Pair Notoginseng-Safflower and Single Herbs by LC–MS/MS” (Pharmaceutics, 2018)

Experiment: Fecal excretion study in rats after oral NS, SF or CNS (LC–MS/MS)
Format: in vivo
Settings: rat feces
Experimental: The animal room was set at constant temperature of 20 ± 2 °C with humidity of 50 ± 20% and 12/12 h light/dark cycle.
Eighteen male rats were fasted for 12 h before starting the experiment. The rats were divided into three groups at random (n = 6) and received NS (60 mg/kg), SF (50 mg/kg), and NS (60 mg/kg) + SF (50 mg/kg), respectively, by oral gavage. The rats were placed in separate metabolic cages. The urine samples were collected at 0–2, 2–4, 4–6, 6–8, 8–12, 12–24, 24–36, 36–48, 48–72, 72–96, and 96–120 h. The feces samples were collected at 0–4, 4–8, 8–12, 12–24, 24–36, 36–48, 48–72, 72–96, and 96–120 h. The urine volume was recorded and the dry feces were measured for each collection period. Samples were stored at −80 °C until analysis.
Feces samples were homogenized in ultrapure water (1 g/15 mL), soaked for 30 min, ultrasonically extracted for 30 min and centrifuged at 9000 rpm for 8 min. An aliquot of 200 μL feces water extraction solution was mixed with 10 μL of IS and then extracted three times with water-saturated n-BuOH (150 μL). The upper organic phase was combined and evaporated to dryness using a ZLS-2 vacuum centrifugal concentrator. The residue was treated as the urine sample and a 1-μL aliquot was injected for LC–MS analysis.
Ultra fast liquid chromatography (UFLC) analysis was performed using a Shimadzu UFLC system (DGU-20A3R Degasser; LC-20AD pump; SIL-20AXR Autosampler; CTO-20AC Column Oven) (Nakagyo-Ku, Koyoto, Japan). […] Because of the different endogenous substances in the urine and feces samples, different elution gradients were used to alleviate the matrix effects for the analytes.
The mass spectrometric detection was performed on an ABSciex 4500 Qtrap mass spectrometer (ABSciex, Foster City, CA, USA) equipped with a negative electrospray ionization (ESI) interface using multiple reaction monitoring (MRM). The MS parameters were optimized under the selected ion monitoring conditions as follows: curtain gas, 35 psi; ionspray voltage, 4500 V; turbo gas temperature, 450 °C; GS1, 45 psi; GS2, 45 psi. All data were acquired and analyzed by Analyst software (Versions 1.6.2) from ABSciex.
The accumulative excretion percentage was calculated for each analyte as follows. Excretion at time (t) = [concentration of the analyte (ng/mL) at t] × total urine (or feces) volume (mL) at t. The cumulative excretion up to time t (mg) was expressed as a percent (%) cumulative excretion by dividing by the total amount of the analyte ingested (mg): % Cumulative Excretion = 100 × (Σt excretiont) total ingested.

## CC(C)=CCC[C@](C)(O[C@@H]1O[C@H](CO)[C@@H](O)[C@H](O)[C@H]1O)[C@H]1CC[C@]2(C)[C@@H]1[C@H](O)C[C@@H]1[C@@]3(C)CC[C@H](O)C(C)(C)[C@@H]3[C@@H](O[C@@H]3O[C@H](CO)[C@@H](O)[C@H](O)[C@H]3O[C@@H]3O[C@@H](C)[C@H](O)[C@@H](O)[C@H]3O)C[C@]12C [ginsenoside Re]
male, Sprague Dawley, oral CNS 110 mg/kg, 4 h
  concentration at 4 h: 87 ± 124 ng/mL
male, Sprague Dawley, oral CNS 110 mg/kg, 8 h
  concentration at 8 h: 267 ± 204 ng/mL
male, Sprague Dawley, oral CNS 110 mg/kg, 12 h
  concentration at 12 h: 330 ± 26 ng/mL
male, Sprague Dawley, oral CNS 110 mg/kg, 24 h
  concentration at 24 h: 366 ± 20 ng/mL
male, Sprague Dawley, oral CNS 110 mg/kg, 36 h
  concentration at 36 h: 367 ± 26 ng/mL
male, Sprague Dawley, oral CNS 110 mg/kg, 48 h
  concentration at 48 h: 354 ± 28 ng/mL
male, Sprague Dawley, oral CNS 110 mg/kg, 72 h
  concentration at 72 h: 168 ± 69 ng/mL
male, Sprague Dawley, oral CNS 110 mg/kg, 96 h
  concentration at 96 h: 44 ± 43 ng/mL
male, Sprague Dawley, oral NS 60 mg/kg, 4 h
  concentration at 4 h: 323 ± 43 ng/mL
male, Sprague Dawley, oral NS 60 mg/kg, 8 h
  concentration at 8 h: 455 ± 18 ng/mL
male, Sprague Dawley, oral NS 60 mg/kg, 12 h
  concentration at 12 h: 401 ± 27 ng/mL
male, Sprague Dawley, oral NS 60 mg/kg, 24 h
  concentration at 24 h: 430 ± 15 ng/mL
male, Sprague Dawley, oral NS 60 mg/kg, 36 h
  concentration at 36 h: 421 ± 18 ng/mL
male, Sprague Dawley, oral NS 60 mg/kg, 48 h
  concentration at 48 h: 561 ± 26 ng/mL
male, Sprague Dawley, oral NS 60 mg/kg, 72 h
  concentration at 72 h: 81 ± 6 ng/mL
male, Sprague Dawley, oral NS 60 mg/kg, 96 h
  concentration at 96 h: 18 ± 1 ng/mL
male, Sprague Dawley, oral NS 60 mg/kg, 120 h
  concentration at 120 h: 17 ± 2 ng/mL
Oral CNS 110 mg/kg, 4 h
  Accumulative excretion amount: 1.098 ± 1.616 µg
  Accumulative excretion percentage: 0.234±0.345%
  Excretion amount: 1.098 ± 1.616 µg
Oral CNS 110 mg/kg, 8 h
  Accumulative excretion amount: 4.802 ± 4.393 µg
  Accumulative excretion percentage: 1.022±0.936%
  Excretion amount: 3.705 ± 2.813 µg
Oral CNS 110 mg/kg, 12 h
  Accumulative excretion amount: 9.675 ± 4.726 µg
  Accumulative excretion percentage: 2.051±1.001%
  Excretion amount: 4.873 ± 1.226 µg
Oral CNS 110 mg/kg, 24 h
  Accumulative excretion amount: 15.135 ± 5.426 µg
  Accumulative excretion percentage: 3.203±1.152%
  Excretion amount: 5.459 ± 1.584 µg
Oral CNS 110 mg/kg, 36 h
  Accumulative excretion amount: 20.570 ± 6.347 µg
  Accumulative excretion percentage: 4.364±1.343%
  Excretion amount: 5.435 ± 1.413 µg
Oral CNS 110 mg/kg, 48 h
  Accumulative excretion amount: 25.852 ± 7.369 µg
  Accumulative excretion percentage: 5.469±1.568%
  Excretion amount: 5.282 ± 1.513 µg
Oral CNS 110 mg/kg, 72 h
  Accumulative excretion percentage: 6.027±1.613%
  Excretion amount: 2.615 ± 1.424 µg
Oral CNS 110 mg/kg, 96 h
  Accumulative excretion amount: 29.184 ± 7.675 µg
  Accumulative excretion percentage: 6.182±1.623%
  Excretion amount: 0.717 ± 0.713 µg
Oral CNS 110 mg/kg, 120 h
  Accumulative excretion amount: 29.184 ± 7.675 µg
  Accumulative excretion percentage: 6.182±1.623%
Oral NS 60 mg/kg, 4 h
  Accumulative excretion amount: 4.585 ± 1.408 µg
  Accumulative excretion percentage: 0.852±0.261%
  Excretion amount: 4.585 ± 1.408 µg
Oral NS 60 mg/kg, 8 h
  Accumulative excretion amount: 11.148 ± 3.459 µg
  Accumulative excretion percentage: 2.063±0.644%
  Excretion amount: 6.563 ± 2.122 µg
Oral NS 60 mg/kg, 12 h
  Accumulative excretion amount: 16.907 ± 5.229 µg
  Accumulative excretion percentage: 3.122±0.971%
  Excretion amount: 5.759 ± 1.787 µg
Oral NS 60 mg/kg, 24 h
  Accumulative excretion amount: 23.057 ± 7.062 µg
  Accumulative excretion percentage: 4.266±1.305%
  Excretion amount: 6.150 ± 1.850 µg
Oral NS 60 mg/kg, 36 h
  Accumulative excretion amount: 29.162 ± 9.141 µg
  Accumulative excretion percentage: 5.397± 1.699%
  Excretion amount: 6.105 ± 2.098 µg
Oral NS 60 mg/kg, 48 h
  Accumulative excretion amount: 37.268 ± 11.835 µg
  Accumulative excretion percentage: 6.892±2.193%
  Excretion amount: 8.106 ± 2.700 µg
Oral NS 60 mg/kg, 72 h
  Accumulative excretion amount: 38.423 ± 12.180 µg
  Accumulative excretion percentage: 7.103±2.254%
  Excretion amount: 1.155 ± 0.306 µg
Oral NS 60 mg/kg, 96 h
  Accumulative excretion amount: 38.685 ± 12.265 µg
  Accumulative excretion percentage: 7.149±2.268%
  Excretion amount: 0.262 ± 0.086 µg
Oral NS 60 mg/kg, 120 h
  Accumulative excretion amount: 38.937 ± 12.350 µg
  Accumulative excretion percentage: 7.187±2.278%
  Excretion amount: 0.252 ± 0.091 µg
